Data taken from ChEMBL document CHEMBL1201862, “PubChem BioAssay data set” (2004).
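Grown in 96-well plates, cells were treated for 48 hours with each compound at five concentrations. Insufficient inhibition: endpoint recorded as highest concentration tested. GI50 is the concentration that inhibits growth by half.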 The source made the active and inactive calls. Cut-off read from the data, not from the text of the source: active = GI50 up to about 1.1 µM and inactive = higher.

What was measured:
Experiment in all cases: NCI-60 cell line screen, 48 h
COLO 205 = system: COLO 205
CCRF-CEM = system: CCRF-CEM
HT-29 = system: HT-29
U-251 = system: U-251
OVCAR-5 = system: OVCAR-5
Malme-3M = system: Malme-3M
SF-268 = system: SF-268
A498 = system: A498
SNB-19 = system: SNB-19
UO-31 = system: UO-31
ACHN = system: ACHN
OVCAR-3 = system: OVCAR-3
TK-10 = system: TK-10
UACC-257 = system: UACC-257
NCI-H522 = system: NCI-H522
RPMI-8226 = system: RPMI-8226
HOP-62 = system: HOP-62

SMILES | GI50 (COLO 205) | GI50 (CCRF-CEM) | GI50 (HT-29) | GI50 (U-251) | GI50 (OVCAR-5) | GI50 (Malme-3M) | GI50 (SF-268) | GI50 (A498) | GI50 (SNB-19) | GI50 (UO-31) | GI50 (ACHN) | GI50 (OVCAR-3) | GI50 (TK-10) | GI50 (UACC-257) | GI50 (NCI-H522) | GI50 (RPMI-8226) | GI50 (HOP-62)
O=C1NCC2=C1CCC1c3ccccc3CCN21 (centres undefined) | > 100 µM (inactive) | > 100 µM (inactive) | > 100 µM (inactive) | > 100 µM (inactive) | > 100 µM (inactive) | > 100 µM (inactive) | > 100 µM (inactive) | > 100 µM (inactive) | > 100 µM (inactive) | > 100 µM (inactive) | > 100 µM (inactive) | > 100 µM (inactive) | > 100 µM (inactive) | > 100 µM (inactive) | > 100 µM (inactive) |  | 
CC(=O)CC(=O)OC1CC(C)CCC1C(C)C (centres undefined) | 96.2 µM (inactive) | 11.7 µM (inactive) | 30 µM (inactive) | 47 µM (inactive) | > 100 µM (inactive) | 40.7 µM (inactive) | 45.7 µM (inactive) | > 100 µM (inactive) | 78.5 µM (inactive) | > 100 µM (inactive) | > 100 µM (inactive) | 26 µM (inactive) | > 100 µM (inactive) | 77.4 µM (inactive) | 39.7 µM (inactive) | 15 µM (inactive) | 33.9 µM (inactive)
O=c1[nH]c(=O)n([C@H]2C[C@@H](CO)[C@@H](O)C2)cc1I | > 100 µM (inactive) | > 100 µM (inactive) | > 100 µM (inactive) | > 100 µM (inactive) | > 100 µM (inactive) | > 100 µM (inactive) | > 100 µM (inactive) | > 100 µM (inactive) | > 100 µM (inactive) | > 100 µM (inactive) | > 100 µM (inactive) | > 100 µM (inactive) | > 100 µM (inactive) | > 100 µM (inactive) | > 100 µM (inactive) | > 100 µM (inactive) | > 100 µM (inactive)
Cc1ccc(-n2nc(C(OC3OC(CO)C(O)C(O)C3O)C(O)CO)c3nc4cc(C)c(C)cc4nc32)cc1 (centres undefined) |  | > 100 µM (inactive) | > 100 µM (inactive) | > 100 µM (inactive) | > 100 µM (inactive) | > 100 µM (inactive) | > 100 µM (inactive) | > 100 µM (inactive) | > 100 µM (inactive) | > 100 µM (inactive) | > 100 µM (inactive) | > 100 µM (inactive) | > 100 µM (inactive) | > 100 µM (inactive) | > 100 µM (inactive) | > 100 µM (inactive) | > 100 µM (inactive)
CC1(C)OCC([C@H]2CC23SCCCS3)O1 (some centres undefined) | > 100 µM (inactive) |  | > 100 µM (inactive) | > 100 µM (inactive) | > 100 µM (inactive) | > 100 µM (inactive) | > 100 µM (inactive) | > 100 µM (inactive) | > 100 µM (inactive) | > 100 µM (inactive) | > 100 µM (inactive) |  | > 100 µM (inactive) | > 100 µM (inactive) | > 100 µM (inactive) | > 100 µM (inactive) | > 100 µM (inactive)
N#CC(/C(CCC(=O)Nc1ccc(Cl)cc1)=N/NC(=O)c1cc2ccccc2cc1O)c1ccccc1 (centres undefined) | 40.3 µM (inactive) | 10.2 µM (inactive) | 45.9 µM (inactive) | 32.8 µM (inactive) | 22.8 µM (inactive) | 50 µM (inactive) | 25.4 µM (inactive) |  | 47.9 µM (inactive) | 36.8 µM (inactive) | 24.9 µM (inactive) | 30.5 µM (inactive) | 56.5 µM (inactive) | 30.7 µM (inactive) |  | 14.9 µM (inactive) | 31.3 µM (inactive)
CCCC(=O)N[C@H]1C2C3CC4C5CC(C42)C1(C)C53 (some centres undefined) | > 100 µM (inactive) | > 100 µM (inactive) | > 100 µM (inactive) | > 100 µM (inactive) | > 100 µM (inactive) | > 100 µM (inactive) | > 100 µM (inactive) | > 100 µM (inactive) | > 100 µM (inactive) | > 100 µM (inactive) | > 100 µM (inactive) | > 100 µM (inactive) | > 100 µM (inactive) | > 100 µM (inactive) | > 100 µM (inactive) | > 100 µM (inactive) | > 100 µM (inactive)
COC(=O)C1=NC(=S)NC(c2ccccc2)C1c1nc2ccccc2s1 (centres undefined) | > 100 µM (inactive) | > 100 µM (inactive) | > 100 µM (inactive) | > 100 µM (inactive) |  | > 100 µM (inactive) | > 100 µM (inactive) | > 100 µM (inactive) | > 100 µM (inactive) | > 100 µM (inactive) | > 100 µM (inactive) | > 100 µM (inactive) | > 100 µM (inactive) | > 100 µM (inactive) |  |  | > 100 µM (inactive)
Cn1ccnc1CCc1ccc(Cl)cc1Cl | > 100 µM (inactive) | > 100 µM (inactive) | 79.4 µM (inactive) | > 100 µM (inactive) | > 100 µM (inactive) | > 100 µM (inactive) | > 100 µM (inactive) | > 100 µM (inactive) | > 100 µM (inactive) | 49.5 µM (inactive) | > 100 µM (inactive) | > 100 µM (inactive) | > 100 µM (inactive) | > 100 µM (inactive) | > 100 µM (inactive) | > 100 µM (inactive) | > 100 µM (inactive)
CC(=O)O[C@H]1[C@@H]2[C@@H]3[C@@H](C[C@H]1C)[C@@H](C)CO[C@@]1(C)CC/C=C(/C)C[C@@H]2O[C@@H]31 | > 100 µM (inactive) | > 100 µM (inactive) | > 100 µM (inactive) | > 100 µM (inactive) | > 100 µM (inactive) | > 100 µM (inactive) | > 100 µM (inactive) | > 100 µM (inactive) | > 100 µM (inactive) | > 100 µM (inactive) | > 100 µM (inactive) | > 100 µM (inactive) | > 100 µM (inactive) | > 100 µM (inactive) | > 100 µM (inactive) | > 100 µM (inactive) | > 100 µM (inactive)
O=C(NCCCCCCNC(=O)OCCSCCn1cc(C(=O)NC(=O)OCc2ccccc2)c(=O)[nH]c1=O)OCCSCCn1cc(C(=O)NC(=O)OCc2ccccc2)c(=O)[nH]c1=O | > 100 µM (inactive) | > 100 µM (inactive) | > 100 µM (inactive) | > 100 µM (inactive) | > 100 µM (inactive) | > 100 µM (inactive) |  | > 100 µM (inactive) | > 100 µM (inactive) | 55.8 µM (inactive) | > 100 µM (inactive) | > 100 µM (inactive) | > 100 µM (inactive) | > 100 µM (inactive) | > 100 µM (inactive) | > 100 µM (inactive) | > 100 µM (inactive)
O=C(/C=C/c1ccco1)c1ccc(NCc2nc3ccccc3[nH]2)cc1 | 13.5 µM (inactive) | 13 µM (inactive) | 19.8 µM (inactive) | 10.9 µM (inactive) | 17.7 µM (inactive) | 19 µM (inactive) | 20 µM (inactive) | 14.4 µM (inactive) | 15.6 µM (inactive) | 13.8 µM (inactive) | 17.5 µM (inactive) | 16.6 µM (inactive) | 17.9 µM (inactive) | 11.1 µM (inactive) | 9.62 µM (inactive) |  | 19.1 µM (inactive)
O=C(O)CCC(=O)Oc1ccc(O)c2c1CCCC2=O | > 100 µM (inactive) | > 100 µM (inactive) | > 100 µM (inactive) | > 100 µM (inactive) | > 100 µM (inactive) | > 100 µM (inactive) | > 100 µM (inactive) | > 100 µM (inactive) | > 100 µM (inactive) | > 100 µM (inactive) | > 100 µM (inactive) | > 100 µM (inactive) | > 100 µM (inactive) | > 100 µM (inactive) | 66.5 µM (inactive) | 95.5 µM (inactive) | > 100 µM (inactive)
COc1ccc(NC(=O)CC/C(CC(=O)c2ccco2)=N/NC(N)=S)cc1 | > 100 µM (inactive) | > 100 µM (inactive) | > 100 µM (inactive) | > 100 µM (inactive) | > 100 µM (inactive) | > 100 µM (inactive) | > 100 µM (inactive) | > 100 µM (inactive) | > 100 µM (inactive) | > 100 µM (inactive) | > 100 µM (inactive) | > 100 µM (inactive) | > 100 µM (inactive) | > 100 µM (inactive) | > 100 µM (inactive) | > 100 µM (inactive) | > 100 µM (inactive)
COc1ccc2nc3ccccc3c(NCCCCCCN(C)CCCl)c2c1 | 0.265 µM (active) | 0.0368 µM (active) | 0.122 µM (active) | 0.286 µM (active) | 1.11 µM (active) | 0.82 µM (active) | 0.133 µM (active) | 1.16 µM (inactive) | 1.17 µM (inactive) | 1.36 µM (inactive) | 0.239 µM (active) | 1.19 µM (inactive) | 1.32 µM (inactive) | 1.41 µM (inactive) | 0.242 µM (active) | 0.0728 µM (active) | 1.05 µM (active)
C[C@H]1CC[P+](Cc2ccccc2)(c2ccccc2)C1 (some centres undefined) | 38 µM (inactive) | > 100 µM (inactive) | 73.6 µM (inactive) | 36.7 µM (inactive) | > 100 µM (inactive) | 30.3 µM (inactive) |  | > 100 µM (inactive) | > 100 µM (inactive) | > 100 µM (inactive) | > 100 µM (inactive) | 41.2 µM (inactive) | > 100 µM (inactive) | 25.7 µM (inactive) | 76.7 µM (inactive) | 19.5 µM (inactive) | > 100 µM (inactive)
CC[C@@H]1OC2(C)CC(S(=O)(=O)c3ccccc3O)CC1O2 (some centres undefined) | > 100 µM (inactive) | > 100 µM (inactive) | > 10 µM (inactive) | > 100 µM (inactive) | > 100 µM (inactive) | > 100 µM (inactive) | > 100 µM (inactive) |  | > 100 µM (inactive) | > 100 µM (inactive) | > 100 µM (inactive) | > 100 µM (inactive) |  | > 100 µM (inactive) | > 100 µM (inactive) | > 100 µM (inactive) | > 100 µM (inactive)
